# Key:
# 15-sLOX [1] = target: T1, 15-sLOX (Glycine max, UniProt P08170); assay: Kinetics parameters of 15s-LOX (UV 270 nm, Michaelis-Menten); format: biochemical, Glycine max (soybean)
# T1 sequence (P08170 1-839): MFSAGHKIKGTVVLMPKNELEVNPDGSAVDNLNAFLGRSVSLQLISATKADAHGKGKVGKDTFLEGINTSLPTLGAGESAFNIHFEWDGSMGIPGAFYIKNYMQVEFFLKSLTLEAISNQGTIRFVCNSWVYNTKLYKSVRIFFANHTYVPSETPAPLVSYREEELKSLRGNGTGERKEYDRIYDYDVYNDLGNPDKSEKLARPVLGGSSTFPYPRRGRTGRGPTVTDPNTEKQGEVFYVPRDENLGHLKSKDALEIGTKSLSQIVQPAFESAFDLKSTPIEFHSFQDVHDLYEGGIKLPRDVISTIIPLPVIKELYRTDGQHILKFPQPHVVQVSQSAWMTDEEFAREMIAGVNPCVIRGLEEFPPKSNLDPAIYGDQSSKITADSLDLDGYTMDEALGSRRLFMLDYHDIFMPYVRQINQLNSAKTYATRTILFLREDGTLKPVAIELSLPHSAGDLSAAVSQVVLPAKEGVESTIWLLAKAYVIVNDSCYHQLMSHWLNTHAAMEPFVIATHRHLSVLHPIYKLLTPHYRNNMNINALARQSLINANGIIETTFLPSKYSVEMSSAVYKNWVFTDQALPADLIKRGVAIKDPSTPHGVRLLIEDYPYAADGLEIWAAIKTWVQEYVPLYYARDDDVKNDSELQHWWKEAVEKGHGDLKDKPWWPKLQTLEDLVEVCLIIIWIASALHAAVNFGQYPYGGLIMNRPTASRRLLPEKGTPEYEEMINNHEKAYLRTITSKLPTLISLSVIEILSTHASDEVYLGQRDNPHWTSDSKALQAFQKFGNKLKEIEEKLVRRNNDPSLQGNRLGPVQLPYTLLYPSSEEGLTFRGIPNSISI
# Description: The activity of 15-sLOX was monitored on a Beckman Coulter DU730 Life Sciences UV-visible spectrometer at a wavelength of 270 nm monitoring the conjugated triene structure in the dihydroxylation products. For the measurements a reaction mixture of DHA or deuterated DHA (0.02 mM; 0.04 mM; 0.1 mM and 0.2 mM) was prepared in 750 µL sodium borate buffer (50 mM, pH 9) by ultrasonification for 10 s. The reaction was subsequently initiated by the addition of 10 µL 15-sLOX (4 mg/mL) to make a total volume of 760 µL in a Hellma CEL2056 quartz cuvette with 1 cm path length (20 °C). The initial reaction rates (V(0)), derived from the recorded UV-absorbance using the law of Lambert-Beer (molar extinction coefficient = 40,000), were plotted against the respective DHA concentrations and fitted to Michaelis-Menten kinetics in GraphPad Prism 7.0. All V(0) values were determined in triplicate and the average of three independent experiments was plotted against the substrate concentrations to yield Michaelis-Menten kinetics.
# 15-sLOX [2] = target: T1, 15-sLOX; assay: LC-MS/MS of 15s-LOX oxidized samples (product profile); format: biochemical, Glycine max (soybean); settings: 0.1 mM substrate, 30 min reaction, room temperature
# Description: In order to gain insights on the nature of the produced metabolites, LC-MS/MS analysis of the reaction products were carried out. To this end, the respective DHA variants (0.1 mM) were incubated in a 2 mL eppendorf tube with 10 µL 15-sLOX (4 mg/mL) in sodium borate buffer (50 mM, pH 9) for 30 min at room temperature and the reaction quenched by the addition of cold MeOH (760 µL). The hydroperoxides were reduced with the addition of aq. SnCl2 (50 µL, 5 mg/mL) and subsequently the mixture was centrifuged (16,100 ×g for 5 min). Water (2 mL) was added to the supernatant, followed by the dropwise addition of glacial acetic acid (40 µL). The products were purified by SPE using SepPak 200 mg C18 cartridges (3CC), according to published protocols. The methyl formate eluates were evaporated to dryness, dissolved in MeOH (0.5 mL) and stored at −80 °C until analysis. The resulting solution was diluted 1000 times with MeOH for LC-MS/MS measurements. To 120 µL water, 72 µL of MeOH, 4 µL of the diluted solution and 4 µL of an internal standard (15-HETE-d8, Leukotriene LTB4-d4 and DHA-d5) was added. The samples were loaded in a SIL-30AC autosampler and the analytes separated on a Kinetex 1.7 µm C18 100Å, 50 × 2.1 mm LC column as described. The detection of DHA metabolites was performed in selected ion monitoring mode using several traces in order to take the eventual loss of a deuterium atom into account. The following traces were used: m/z 327.2, 343.2, 359.2 and 375.2 for DHA and its metabolites, m/z 327.2, 328.2, 329.2, 344.2, 345.2, 360.2, 361.2, 376.2, 377.2 for D2-DHA, m/z 331.2, 345.3, 346.2, 361.2, 362.3, 363.2, 377.2, 378.2 and 379.2 for D4-DHA and m/z 337.2, 352.2, 353.2, 367.2, 368.2, 369.2, 383.2, 384.2 and 385.2 for D10-DHA. Tandem mass spectra were recorded as product ion scans. Quantification of the metabolites was done by calculating the area ratio between the analyte and the internal standard (DHA-d5 for non-hydroxylated, 15-HETE-d8 for mono-hydroxylated and LTB4-d4 for di-hydroxylated derivatives) using Multiquant version 3.0.2.
# ARPE-19 cells [3] = assay: cells; format: cell-based; settings: ARPE-19, H2O2 treatment 600 µM in 1% FBSM
# Description: ARPE-19 cells were obtained from ATCC, and maintained in Dulbecco’s Modified Eagle’s Medium (DMEM)/Ham F12 (GIBCO) containing 10% (v/v) fetal bovine serum (FBS) and 1% (v/v) penicillin/streptomycin under a humidified (95%)/CO2 (5%) atmosphere at 37 °C. For splitting and experiments, cells were dissociated with 0.25% trypsin-EDTA, re-suspended in the culture medium and then plated at 1–3 × 10^5 cells/mL. Cells were cultured and used up to a maximum of 10 passages.
# (§1) Cell viability was determined by the MTT colorimetric assay. Cells were incubated for 2 h with MTT reagent (0.5 mg/mL). The absorbance at 570 nm and 655 nm of individual wells was measured using a microplate reader (BioRad 550). The percentage of viable cells was calculated as [(OD570 sample – OD655 sample)/(OD570 control – OD655 control)] × 100%.
# ARPE-19 cells were plated into 96-well plates (3 × 10^4 cells/well) and cultured for 24 h to reach confluence before DHA treatment. The cells were treated in medium with 1% FBS (1% FBSM), or with H2O2 prepared in medium with FBS (1%, v/v) to a final concentration of 600 μM. Cells were then treated with DHA, D2-DHA and D4-DHA, at different concentrations (0–80 μm) for 24 h. Control cells were incubated with DMSO (0.2%). After 4 h, cell viability was determined in triplicate using the MTT colorimetric assay. Results were expressed in percentage of viable cells normalized with control conditions in the absence of PUFA and H2O2 stress.
# Sigmoidal doses-responses linked to the toxicity were obtained using GraphPad prism software, allowing to calculate IC50 values described as the concentration leading to 50% of cell viability.
# ARPE-19 cells [4] = assay: Protection of lipophenols against all-trans-retinal (MTT cell viability); format: cell-based; settings: ARPE-19, pretreatment 80 µM 1 h, trans-retinal 25 µM 4 h, MTT after 20 h
# Description: as §1
# ARPE-19 cells were plated into 96-well plates (3 × 10^4 cells/well) and cultured for 24 h to reach confluence before lipophenol treatment. Cells were treated with serum free medium containing lipophenols at different concentrations (0–80 μM) for 1 h. Then all-trans-retinal was added to a final concentration of 25 μM for 4 h (in DMF), before rinsing with medium. Cell viability was determined 16–20 h later, in triplicate samples, using the MTT colorimetric assay. Control cells were incubated with DMSO (0.2%) and DMF (0.14%). The data are expressed as the percentage of untreated cells (CTL, without all-trans-retinal).
# ARPE-19 cells [5] = assay: Lipid peroxidation status with C11-Bodipy581/591 probe (FACS) under oxidative conditions; format: cell-based; settings: ARPE-19, 50 µM for 24 h
# Description: ARPE-19 cells were plated into 2 cm^2 wells (2 × 10^5 cells/well) and cultured for 24 h to reach confluence before PUFA or lipophenol treatment. The cell cultures were treated with 1% FBSM containing tested compounds (deuterated DHAs or deuterated lipophenols) at 50 μM for 24 h and then rinsed with media before the incubation of 5 µM C11-Bodipy^581/591 for 30 min. Then, the cells were rinsed and treated with the different stressors, corresponding to different protocols. For chemical stress the cells were incubated with 400 µM of H2O2 during 24 h followed by FACS analysis. For photobleaching stress, the cells were exposed to a white LED lamp with an intensity of 5000 lux at room temperature during 1 h followed by the FACS analysis.
# FACS was performed with the BD Accuri C6 Flow Cytometer and BD Accuri C6 Software for data acquisition (BD Biosciences). This flow cytometer is equipped with an excitation laser at 488 nm, and a fluorescence detector FL1 533/30 nm. Data were collected to 10,000 events for each sample using a flow rate of 35 µL/min. Parameters obtained for data analysis included: cell size from the forward scatter (FSC), granularity from the side scatter (SSC) and the green fluorescence of the stained cells with C11-Bodipy^581/591.
# First the SSC-A versus FSC-A dot-plot was used to gate the cellular population and remove the cellular debris. Then the SSC-A versus SSC-H dot-plot was used to remove cell doublets in the previous gate to give a final gate. The cellular population in the last gate designed was plotted on count versus log green fluorescence to give the fluorescence mean intensity of FL1. The mean FL1 values were normalized to the cells only stained with C11-Bodipy^581/591.
# [6] = serum starvation (1% FBSM) 48 h
smiles,measurement,setting,value
CC/C=C\C/C=C\C/C=C\C/C=C\C/C=C\C/C=C\CCC(=O)O [D10-DHA],Km,"15-sLOX [1]; 15s-LOX, substrate 0.02-0.2 mM, borate buffer pH 9, 20 °C, 270 nm",3.27 µM
[2H]C([2H])(/C=C\CC)/C=C\C([2H])([2H])/C=C\C([2H])([2H])/C=C\C([2H])([2H])/C=C\C([2H])([2H])/C=C\CCC(=O)O [D10-DHA],fold decrease in the Vmax value,"15-sLOX [1]; 15s-LOX, compared with the other DHAs",more than 10 fold
same,15s-LOX activity for the double hydroxylation product,15-sLOX [1]; monitored at 270 nm,significantly reduced activity
same,pre-dominant product of 15-sLOX oxidation (LC-MS),15-sLOX [2],vast excess obtained for 17S-HDHA
"OO [H2O2, Hydrogen peroxide, reference compound]",cell mortality,ARPE-19 cells [3],60–70%
"[2H]C([2H])(/C=C\C/C=C\C/C=C\C/C=C\C/C=C\CC)/C=C\CCC(=O)Oc1cc(O)cc(OC(C)C)c1 [IP-D2-DHA, phloroglucinol-OiPr-O-(6,6-D2)-DHA]",increase in cell viability against all-trans-retinal,ARPE-19 cells [4],52%
same,lipid peroxidation status (C11-BODIPY fluorescence),ARPE-19 cells [5]; [6],slight but significant decrease in lipid peroxidation
"[2H]C([2H])(C=CCC=CCC=CCC=CCC)C=CC([2H])([2H])C=CCCC(=O)Oc1cc(O)cc(OC(C)C)c1 [IP-D4-DHA, phloroglucinol-OiPr-O-(6,6,9,9-D4)-DHA]",increase in cell viability against all-trans-retinal,ARPE-19 cells [4],47%
same,lipid peroxidation status (C11-BODIPY fluorescence),ARPE-19 cells [5]; serum starvation (1% FBSM) 24 h,decreased lipid peroxidation compared to IP-DHA and IP-D2-DHA
same,lipid peroxidation status (C11-BODIPY fluorescence),ARPE-19 cells [5]; [6],slight but significant decrease in lipid peroxidation
same,lipid peroxidation status (C11-BODIPY fluorescence),ARPE-19 cells [5]; then H2O2 400 µM 24 h,decreased the lipid peroxidation status relative to IP-DHA and IP-D2-DHA
same,lipid peroxidation status (C11-BODIPY fluorescence),"ARPE-19 cells [5]; then photobleaching (white light, 5000 lux, 1 h)",reduction of lipid oxidation
CC/C=C\C/C=C\C/C=C\C/C=C\C/C=C\C/C=C\CCC(=O)Oc1cc(O)cc(OC(C)C)c1 [IP-DHA],increase in cell viability against all-trans-retinal,ARPE-19 cells [4],42%
